# Laboratory results: patent US20110002969A1, “COSMETIC OR PHARMACEUTICAL COMPOSITIONS COMPRISING METALLOPROTEINASE INHIBITORS” (LIPOTEC, S.A., priority 2008, published 2011)
# “And” between values parts separate entries of the source, which are not always exact repeats. Equal values may be shown once.
# How the values were obtained:
# Assay type in all cases: biochemical
# type IV collagenase = experiment: Collagenase inhibition trial (EnzChek Gelatinase/Collagenase Assay Kit, DQ Gelatin fluorescence); conditions: peptides at 2 mg/mL, preincubated 1 hour with 0.1 unit/mL type IV collagenase; DQ Gelatin 25 μg/mL, 2 hours; normalized to medium basal values
# Protocol: Peptides were resuspended in water in the presence of 0.5% DMSO. The trial was carried out in black microplates having 96 well and the EnzChek®Gelatinase/Collagenase Assay Kit (Molecular Probes) was used. To that end, peptides were preincubated at 2 mg/mL during 1 hour with 0.1 unit/mL of type IV collagenase at room temperature with moderate agitation, after said time fluorescein conjugated substrate (DQ™ Gelatin) was added to a final concentration of 25 μg/mL and reactions were incubated for 2 hours at room temperature with agitation and protected from light. The substrate, whose flourescence is inhibited, is […] collagenase releasing flourescent fragments, monitored by florescence with a FLUOstar galaxy reader (BMG LabTechnologies), using 485 nm filters for excitation and 520 nm for emission.
# Table 2 details those peptides whose collagenase inhibition values are higher than 25%. Inhibition values were normalized with respect to medium inhibition basal values.
# Human MMP-9 = Human MMP-9 (Homo sapiens, UniProt P14780); experiment: Human MMP inhibition, DQ Gelatin fluorescence; conditions: peptides 0.5 mM, activated protease 0.35 μg/mL, 1 hour preincubation; DQ Gelatin 25 μg/mL, 16 hours; normalized to control fluorescence; in % (unit assumed)
# Protocol: (§1) Human MMPs were reconstructed in 50 mM Tris-HCl, 150 mM NaCl, 5 mM CaCl2, 0.2 mM NaN3 at a 7.6 pH and activated by reaction with 10 mM of 4-aminophenylmercuric acetate (dissolved in 0.01M NaOH) at a 10:1 to 37° C. ratio for 4-6 h. Activated proteases (0.35 μg/mL) were preincubated with peptides to a final 0.5 mM concentration in a 96-well black microplate for 1 hour at room temperature. After preincubation, 25 μg/mL substrate (DQ™ Gelatin) were added to the wells and samples were incubated for 16 hours at room temperature and protected against the light. Released flourescence by marked gelatin digestion was measured with an automated multiplate fluorescence reader, exciting at 485 nm and reading at 520 nm.
# (§2) The results were corrected from basal flourescent value in MMP and product absence and normalized with respect to control fluorescence. Table 3 details the best inhibition values for peptides.
# Human MMP-2 = target: T1, Human MMP-2 (Homo sapiens, UniProt P08253); experiment: Human MMP inhibition, DQ Gelatin fluorescence; conditions: peptides 0.5 mM, activated protease 0.35 μg/mL, 1 hour preincubation; DQ Gelatin 25 μg/mL, 16 hours; normalized to control fluorescence; in % (unit assumed)
# T1 sequence (P08253 110-660): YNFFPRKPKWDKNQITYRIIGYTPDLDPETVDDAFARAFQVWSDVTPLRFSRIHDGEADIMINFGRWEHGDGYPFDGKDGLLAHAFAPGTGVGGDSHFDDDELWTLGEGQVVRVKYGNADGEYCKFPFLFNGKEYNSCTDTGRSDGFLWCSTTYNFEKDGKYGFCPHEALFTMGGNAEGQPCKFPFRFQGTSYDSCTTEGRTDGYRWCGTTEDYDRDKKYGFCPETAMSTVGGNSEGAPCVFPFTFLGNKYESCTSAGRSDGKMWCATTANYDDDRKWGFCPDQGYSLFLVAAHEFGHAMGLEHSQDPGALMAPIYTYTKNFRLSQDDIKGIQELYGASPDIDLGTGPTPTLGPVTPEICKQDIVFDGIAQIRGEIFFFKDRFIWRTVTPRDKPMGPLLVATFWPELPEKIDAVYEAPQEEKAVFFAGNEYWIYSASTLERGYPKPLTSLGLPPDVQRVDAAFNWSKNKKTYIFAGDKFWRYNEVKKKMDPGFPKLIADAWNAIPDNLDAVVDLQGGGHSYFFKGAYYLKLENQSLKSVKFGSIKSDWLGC
# Protocol: as §1, §2
# Human MMP-1 = target: T2, Human MMP-1 (Homo sapiens, UniProt P03956); experiment: Human MMP inhibition, DQ Gelatin fluorescence; conditions: peptides 0.5 mM, activated protease 0.35 μg/mL, 1 hour preincubation; DQ Gelatin 25 μg/mL, 16 hours; normalized to control fluorescence
# T2 sequence (P03956 100-469): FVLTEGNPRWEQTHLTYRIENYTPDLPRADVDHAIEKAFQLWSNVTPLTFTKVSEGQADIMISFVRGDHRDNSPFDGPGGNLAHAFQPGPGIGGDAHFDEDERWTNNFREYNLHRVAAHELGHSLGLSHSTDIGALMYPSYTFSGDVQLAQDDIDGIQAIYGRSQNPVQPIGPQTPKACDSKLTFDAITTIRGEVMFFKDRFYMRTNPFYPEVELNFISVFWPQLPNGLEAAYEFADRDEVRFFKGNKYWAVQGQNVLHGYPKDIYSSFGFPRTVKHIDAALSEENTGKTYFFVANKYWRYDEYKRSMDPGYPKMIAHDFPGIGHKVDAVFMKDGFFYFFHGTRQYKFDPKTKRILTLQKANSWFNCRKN
# Protocol: as §1, §2
# Human MMP-3 = Human MMP-3 (Homo sapiens, UniProt P08254); experiment: Human MMP inhibition, DQ Gelatin fluorescence; conditions: peptides 0.5 mM, activated protease 0.35 μg/mL, 1 hour preincubation; DQ Gelatin 25 μg/mL, 16 hours; normalized to control fluorescence
# Protocol: as §1, §2
# Sequence of Human MMP-9 (P14780 107-707 limits assumed): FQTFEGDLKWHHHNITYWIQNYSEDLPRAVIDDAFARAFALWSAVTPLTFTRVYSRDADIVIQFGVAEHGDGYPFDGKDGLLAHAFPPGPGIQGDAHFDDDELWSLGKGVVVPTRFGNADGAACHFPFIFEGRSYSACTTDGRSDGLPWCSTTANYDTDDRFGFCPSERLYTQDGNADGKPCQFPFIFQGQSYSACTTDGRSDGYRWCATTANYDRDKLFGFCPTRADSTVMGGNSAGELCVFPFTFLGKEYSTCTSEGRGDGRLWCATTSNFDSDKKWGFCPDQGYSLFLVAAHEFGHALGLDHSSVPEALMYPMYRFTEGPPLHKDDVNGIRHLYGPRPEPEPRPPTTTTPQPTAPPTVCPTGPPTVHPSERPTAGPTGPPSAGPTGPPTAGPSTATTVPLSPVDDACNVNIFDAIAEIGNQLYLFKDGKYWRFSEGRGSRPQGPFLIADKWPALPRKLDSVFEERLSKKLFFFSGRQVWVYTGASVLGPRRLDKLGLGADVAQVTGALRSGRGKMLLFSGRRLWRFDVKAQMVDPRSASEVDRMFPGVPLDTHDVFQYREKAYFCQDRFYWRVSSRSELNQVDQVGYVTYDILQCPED
# Sequence of Human MMP-3 (P08254 100-477): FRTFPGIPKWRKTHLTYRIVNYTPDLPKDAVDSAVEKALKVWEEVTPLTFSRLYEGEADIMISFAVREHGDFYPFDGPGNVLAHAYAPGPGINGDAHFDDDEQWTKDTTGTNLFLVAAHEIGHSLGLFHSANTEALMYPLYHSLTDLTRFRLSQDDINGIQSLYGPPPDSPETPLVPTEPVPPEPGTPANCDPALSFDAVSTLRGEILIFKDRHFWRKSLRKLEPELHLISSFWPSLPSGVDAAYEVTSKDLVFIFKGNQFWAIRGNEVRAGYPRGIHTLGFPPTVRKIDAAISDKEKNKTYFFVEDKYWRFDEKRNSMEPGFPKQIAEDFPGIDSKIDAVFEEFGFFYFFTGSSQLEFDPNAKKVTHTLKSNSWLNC
Substance,Collagenase activity inhibition percentage (type IV collagenase) [%],MMP-9 inhibition value (Human MMP-9),MMP-2 inhibition value (Human MMP-2),MMP-1 inhibition value (Human MMP-1) [%],MMP-3 inhibition value (Human MMP-3) [%]
Ac-L-Ara-L-His-L-His-L-Cit-CONH-(CH2)15-CH3,55.4,–,–,–,–
Ac-L-Arg-L-Asn-L-Arg-L-Cit-OH,58.9,69.5 and 89.6,78.7 and 95.3,–,–
Ac-L-Arg-L-Asn-L-His-L-Cit-CONH-(CH2)15-CH3,26.8,–,–,–,–
Ac-L-Arg-L-His-L-Arg-L-Cit-OH,60.5,–,–,–,–
Ac-L-Arg-L-His-L-His-L-Cit-OH,60.6,63.1,101.4,34.7,39.1
H-L-Arg-L-Asn-L-His-L-Cit-OH,26.8,–,–,–,–
Palm-L-Arg-L-Asn-L-Arg-L-Cit-NH2,31.3,–,–,–,–
Palm-L-Arg-L-His-L-His-L-Cit-NH2,36.7,–,–,–,–
